From ChEMBL document CHEMBL2074272, “Proton-coupled oligopeptide transport by rat renal cortical brush border membrane vesicles: a functional analysis using ACE inhibitors to determine the isoform of the transporter” (Biochim Biophys Acta, 1998)
pKi: −log10 of the molar value.

What was measured:
[1] = biological target: T1, Solute carrier family 15 member 1 (Rattus norvegicus, UniProt P51574); assay: TP_TRANSPORTER: inhibition of D-Phe-L-Gln uptake in Xenopus laevis oocytes; assay type: functional, cell-based, Oocyte
T1 sequence (P51574 whole entry): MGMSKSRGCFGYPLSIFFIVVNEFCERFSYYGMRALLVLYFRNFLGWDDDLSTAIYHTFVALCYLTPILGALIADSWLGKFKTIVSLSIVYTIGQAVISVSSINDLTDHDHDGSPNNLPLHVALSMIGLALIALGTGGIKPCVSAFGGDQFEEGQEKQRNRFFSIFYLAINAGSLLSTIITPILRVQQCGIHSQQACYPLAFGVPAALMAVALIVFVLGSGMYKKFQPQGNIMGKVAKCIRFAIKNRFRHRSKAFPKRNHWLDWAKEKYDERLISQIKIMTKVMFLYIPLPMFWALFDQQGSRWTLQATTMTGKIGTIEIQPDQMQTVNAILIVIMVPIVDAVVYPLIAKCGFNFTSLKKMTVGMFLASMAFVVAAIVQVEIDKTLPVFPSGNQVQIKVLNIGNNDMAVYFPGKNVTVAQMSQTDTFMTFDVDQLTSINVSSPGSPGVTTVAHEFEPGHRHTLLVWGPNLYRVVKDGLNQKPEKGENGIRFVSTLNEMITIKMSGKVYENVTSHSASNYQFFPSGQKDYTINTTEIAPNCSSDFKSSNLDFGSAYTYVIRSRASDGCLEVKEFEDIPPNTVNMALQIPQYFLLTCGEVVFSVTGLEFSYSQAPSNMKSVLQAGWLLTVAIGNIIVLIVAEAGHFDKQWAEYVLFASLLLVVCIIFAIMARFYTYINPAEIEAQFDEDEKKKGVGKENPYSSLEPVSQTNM

[2] = biological target: T2, Solute carrier family 15 member 1 (Rattus norvegicus) (UniProt P51574); assay: TP_TRANSPORTER: uptake in Xenopus laevis oocytes; assay type: functional, cell-based; settings: Oocyte
T2 sequence (whole entry): T1 sequence (P51574 whole entry)

Row | pKi [1] | Activity [2] | Compound
1 | 2.37 | – | CCOC(=O)[C@H](CCc1ccccc1)N[C@@H](C)C(=O)N1CCC[C@H]1C(=O)O [ENALAPRIL]
2 | 2.06 | – | C[C@H](CS)C(=O)N1CCC[C@H]1C(=O)O [CAPTOPRIL]
3 | – | substrate [+] | NC(=O)CC[C@H](NC(=O)[C@H](N)Cc1ccccc1)C(=O)O
